Test results from the supplement of paper PMC8671470.

What was measured:
Conditions in all cases: 72 h
BV-173 [1] = tested on: BV-173
In short: (§1)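 Each of fifteen myeloid leukaemia cell lines was seeded in RPMI 1640 at a density titrated to its linear growth range. The cells were incubated for 72 h at 37 °C and 5% CO2 with compounds at five tenfold doses from 1 to 10,000 nM, in duplicate. After ATP luminescence was normalised to vehicle and to a positive control at 10 µM, four-parameter log-logistic curves were fitted. These curves gave the IC50.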

HEL [2] = tested on: HEL
In short: as §1

HL-60 [3] = tested on: HL-60
In short: as §1

K-562 = tested on: K-562
In short: as §1

KCL-22 [4] = tested on: KCL-22
In short: as §1

KG-1 [5] = tested on: KG-1
In short: as §1

KU-812 [6] = tested on: KU-812
In short: as §1

LAMA-84 [7] = tested on: LAMA-84
In short: as §1

ML-2 [8] = tested on: ML-2
In short: as §1

MOLM-13 [9] = tested on: MOLM-13
In short: as §1

MV4-11 [10] = tested on: MV4-11
In short: as §1

Mono-Mac-6 [11] = tested on: Mono-Mac-6
In short: as §1

NOMO-1 [12] = tested on: NOMO-1
In short: as §1

SHI-1 [13] = tested on: SHI-1
In short: as §1

THP-1 [14] = tested on: THP-1
In short: as §1

BV-173 [15] = assay: cell viability (% survival relative to DMSO control, bortezomib = 0%); higher = less cytotoxic
In short: (§2)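 Fifteen myeloid leukaemia cell lines (10 AML, 5 CML) were seeded at a density titrated to the linear growth range into 384-well plates pre-printed with compounds at 1, 10, 100, 1000 or 10000 nM in duplicate. Plates were incubated for 72 h at 37 °C with 5% CO2. Viability was then read by CellTiter-Glo luminescence. Each value is percent survival averaged over the duplicates, with vehicle set to 100% and a 10 µM positive control to 0%.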

HEL [16] = assay: as above
In short: as §2

HL-60 [17] = assay: as above
In short: as §2

KCL-22 [18] = assay: as above
In short: as §2

KG-1 [19] = assay: as above
In short: as §2

KU-812 [20] = assay: as above
In short: as §2

LAMA-84 [21] = assay: as above
In short: as §2

ML-2 [22] = assay: as above
In short: as §2

MOLM-13 [23] = assay: as above
In short: as §2

MV4-11 [24] = assay: as above
In short: as §2

Mono-Mac-6 [25] = assay: as above
In short: as §2

NOMO-1 [26] = assay: as above
In short: as §2

SHI-1 [27] = assay: as above
In short: as §2

THP-1 [28] = assay: as above
In short: as §2

HL-60 [29] = assay: area under dose-response curve (viability, 1 nM-10 uM) (fraction (0-1)); higher = more sensitive
In short: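 A rescreen of the full library used HL-60 cells in RPMI 1640 with 10% FBS on 384-well plates, run in duplicate at five tenfold concentrations (1–10,000 nM). Each screen included DMSO or 100 nM of one of three metabolic inhibitors and ran 72 h at 37 °C, 5% CO2. CellTiter-Glo viability was scaled between DMSO and 10 μM proteasome-inhibitor wells. Any area under the curve comes from four-parameter log-logistic fits with drc and PharmacoGx.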

COc1cc(/C=C/C(=O)N2CCC=CC2=O)cc(OC)c1OC [Piperlongumine]
Conditions	IC50 (cell viability) [µM]
BV-173 [1]	1.62
HEL [2]	3.03
HL-60 [3]	2.36
K-562	1.95
KCL-22 [4]	2.92
KG-1 [5]	3.33
KU-812 [6]	2.87
LAMA-84 [7]	3.22
ML-2 [8]	1.66
MOLM-13 [9]	1.93
MV4-11 [10]	0.959
Mono-Mac-6 [11]	2.38
NOMO-1 [12]	3.22
SHI-1 [13]	2.53
THP-1 [14]	2.45

Conditions	area under dose-response curve, co-treatment: AZD3965 100 nM	area under dose-response curve, co-treatment: DMSO vehicle	area under dose-response curve, co-treatment: GSK2194069 100 nM	area under dose-response curve, co-treatment: pictilisib 100 nM	cell viability, 1 nM [%]	cell viability, 10 nM [%]	cell viability, 100 nM [%]	cell viability, 1000 nM [%]	cell viability, 10000 nM [%]
BV-173 [15]	–	–	–	–	93.3	99.9	101	71.4	-0.383
HEL [16]	–	–	–	–	90.1	111	103	97.5	-0.0957
HL-60 [17]	–	–	–	–	92.7	100	102	85.7	0.441
HL-60 [29]	0.131	0.134	0.156	0.153	–	–	–	–	–
KCL-22 [18]	–	–	–	–	92.3	109	90.3	93.5	1.29
KG-1 [19]	–	–	–	–	98.4	102	93.1	98.3	4.3
KU-812 [20]	–	–	–	–	94.6	110	94.9	92.2	3.51
LAMA-84 [21]	–	–	–	–	104	106	104	98.8	2.16
ML-2 [22]	–	–	–	–	102	100	92.8	72.6	-0.133
MOLM-13 [23]	–	–	–	–	98.6	87.6	99.5	75.7	0.668
MV4-11 [24]	–	–	–	–	95	90.4	89.7	44.4	-0.271
Mono-Mac-6 [25]	–	–	–	–	94.3	107	98.7	86.5	1.58
NOMO-1 [26]	–	–	–	–	94.9	103	105	100	0.949
SHI-1 [27]	–	–	–	–	100	98.3	106	89	0.583
THP-1 [28]	–	–	–	–	103	93.9	101	88	-0.152

O=C1c2cc([N+](=O)[O-])ccc2-n2c1nc1ccccc1c2=O [GNF-Pf-3777]
Conditions	IC50 (cell viability) [µM]
BV-173 [1]	1.64
HEL [2]	0.934
HL-60 [3]	1.28
K-562	1.11
KCL-22 [4]	0.538
KG-1 [5]	1.29
KU-812 [6]	1.31
LAMA-84 [7]	1.83
ML-2 [8]	6.05
MOLM-13 [9]	1.58
MV4-11 [10]	1.5
Mono-Mac-6 [11]	1.78
NOMO-1 [12]	5.99
SHI-1 [13]	1.93
THP-1 [14]	1.22

Conditions	area under dose-response curve, co-treatment: AZD3965 100 nM	area under dose-response curve, co-treatment: DMSO vehicle	area under dose-response curve, co-treatment: GSK2194069 100 nM	area under dose-response curve, co-treatment: pictilisib 100 nM	cell viability, 1 nM [%]	cell viability, 10 nM [%]	cell viability, 100 nM [%]	cell viability, 1000 nM [%]	cell viability, 10000 nM [%]
BV-173 [15]	–	–	–	–	95.9	104	89.5	66.4	4.9
HEL [16]	–	–	–	–	98.5	105	105	53.1	13.6
HL-60 [17]	–	–	–	–	89.7	92.2	105	59.1	0.853
HL-60 [29]	0.15	0.122	0.154	0.165	–	–	–	–	–
KCL-22 [18]	–	–	–	–	87.9	115	102	37	21.2
KG-1 [19]	–	–	–	–	99.6	95.6	110	67.1	27.6
KU-812 [20]	–	–	–	–	91.6	91.1	87.9	53.4	6.51
LAMA-84 [21]	–	–	–	–	97.5	102	96.1	71.3	32.8
ML-2 [22]	–	–	–	–	96.7	99	97.8	94.1	28.8
MOLM-13 [23]	–	–	–	–	99.5	122	108	75.8	18
MV4-11 [24]	–	–	–	–	106	101	97.1	67.5	2.64
Mono-Mac-6 [25]	–	–	–	–	86.3	104	90.9	66.3	6.53
NOMO-1 [26]	–	–	–	–	92.3	99.9	90.3	86.7	31.8
SHI-1 [27]	–	–	–	–	99.9	104	92	66.6	16.5
THP-1 [28]	–	–	–	–	103	92.2	85.6	62.3	30.9

C[C@](N)(Cc1ccc(O)cc1)C(=O)O [Metirosine]
Conditions	IC50 (cell viability) [µM]
BV-173 [1]	> 10
HEL [2]	> 10
HL-60 [3]	> 10
K-562	> 10
KCL-22 [4]	> 10
KG-1 [5]	> 10
KU-812 [6]	> 10
LAMA-84 [7]	> 10
ML-2 [8]	> 10
MOLM-13 [9]	> 10
MV4-11 [10]	> 10
Mono-Mac-6 [11]	> 10
NOMO-1 [12]	> 10
SHI-1 [13]	> 10
THP-1 [14]	> 10

Conditions	area under dose-response curve, co-treatment: AZD3965 100 nM	area under dose-response curve, co-treatment: DMSO vehicle	area under dose-response curve, co-treatment: GSK2194069 100 nM	area under dose-response curve, co-treatment: pictilisib 100 nM	cell viability, 1 nM [%]	cell viability, 10 nM [%]	cell viability, 100 nM [%]	cell viability, 1000 nM [%]	cell viability, 10000 nM [%]
BV-173 [15]	–	–	–	–	98.4	89.1	115	86	114
HEL [16]	–	–	–	–	101	92.6	99.6	94.7	108
HL-60 [17]	–	–	–	–	99.2	93.7	89.7	97.6	107
HL-60 [29]	< 0.0301	< 0.0301	< 0.0301	< 0.0301	–	–	–	–	–
KCL-22 [18]	–	–	–	–	107	95.1	96.9	91.8	99.7
KG-1 [19]	–	–	–	–	105	93.9	94.7	89.3	107
KU-812 [20]	–	–	–	–	89.4	91.1	102	91.9	96.5
LAMA-84 [21]	–	–	–	–	102	108	107	105	99.2
ML-2 [22]	–	–	–	–	91.1	96.7	107	97.9	93.5
MOLM-13 [23]	–	–	–	–	94.4	81.5	82.9	94.6	95.7
MV4-11 [24]	–	–	–	–	107	87.3	92.3	107	101
Mono-Mac-6 [25]	–	–	–	–	99.2	101	107	92.9	104
NOMO-1 [26]	–	–	–	–	95	96.6	103	93.6	102
SHI-1 [27]	–	–	–	–	103	105	101	101	91.4
THP-1 [28]	–	–	–	–	98.3	99.5	105	94.3	101
